Test results: ChEMBL document CHEMBL5036363, “Discovery and Lead Optimization of Benzene-1,4-disulfonamides as Oxidative Phosphorylation Inhibitors” (J Med Chem, 2022)

Assays:
Assay type in all cases: functional, cell-based
[1] = tested on: MIA PaCa-2; assay: Cytotoxicity against human MIA PaCa-2 cells assessed as inhibition of cell growth incubated for 7 days in glucose-containing medium by MTT assay; conditions: MIA PaCa-2, 168 h
[2] = tested on: BXPC-3; assay: Cytotoxicity against human BXPC-3 cells assessed as inhibition of cell growth incubated for 7 days in glucose-containing medium by MTT assay; conditions: BXPC-3, 168 h
[3] = tested on: MIA PaCa-2; assay: Cytotoxicity against human MIA PaCa-2 cells assessed as inhibition of cell growth incubated for 3 days in galactose-containing medium by MTT assay; conditions: MIA PaCa-2, 72 h
[4] = tested on: MIA PaCa-2; assay: Cytotoxicity against human MIA PaCa-2 cells assessed as inhibition of cell growth incubated for 3 days in glucose-containing medium by MTT assay; conditions: MIA PaCa-2, 72 h

| SMILES | IC50 [1] [µM] | IC50 [2] [µM] | IC50 [3] [µM] | IC50 [4] [µM] |
| --- | --- | --- | --- | --- |
| CCCN(CC)S(=O)(=O)c1ccc(S(=O)(=O)N2CCC[C@@H](C(=O)OCC)C2)cc1 | 0.3 | 0.3 |  |  |
| CCOC(=O)[C@@H]1CCN(S(=O)(=O)c2ccc(S(=O)(=O)N(CC)CC)cc2)C1 | 8.6 | 10 | > 10 | 1.5 |
| CCN(CC)S(=O)(=O)c1ccc(S(=O)(=O)N2CCC[C@@H](C(=O)NC3CN(C(=O)C4CC4)C3)C2)cc1 | 2.8 | 18.5 | > 10 | 3.1 |
| CCOC(=O)[C@@H]1CCCN(S(=O)(=O)c2ccc(S(=N)(=O)N(CC)CC)cc2)C1 (stereo not given in full) | 2.6 | 3.6 | > 10 | 0.9 |
| CCOC(=O)[C@@H]1CCCN(C(=O)c2ccc(S(=O)(=O)N(CC)CC)cc2)C1 | > 10 | > 10 | > 10 | > 3 |
| CCOC(=O)[C@@H]1CCCN(S(=O)(=O)c2ccc(S(=O)(=O)N3CCNCC3)cc2)C1 | > 30 | > 30 |  |  |
| CCOC(=O)C12CC(CN(S(=O)(=O)c3ccc(S(=O)(=O)N(CC)CC)cc3)C1)C2 | 1 | 1.2 | > 10 | 0.4 |
| CCOC(=O)C1CCCCN1S(=O)(=O)c1ccc(S(=O)(=O)N(CC)CC)cc1 (stereo not given) | 24.6 | 12.9 | > 10 | > 3 |
| CCN(CC)S(=O)(=O)c1ccc(S(=O)(=O)N2CCC[C@@H](c3nc(C)no3)C2)cc1 | 4.1 | 2.9 | > 10 | 0.7 |
| CCN(CC)S(=O)(=O)c1ccc(S(=O)(=O)N2CCC[C@@H](C(=O)N(C)C(C)C)C2)cc1 | 6.2 | 7.7 | > 10 | 1.4 |
| CCN1CC(NC(=O)[C@@H]2CCCN(S(=O)(=O)c3ccc(S(=O)(=O)N(CC)CC)cc3)C2)C1 | > 30 | > 30 | > 10 | > 10 |
| CCOC(=O)[C@@H]1CCC[C@H](S(=O)(=O)c2ccc(S(=O)(=O)N(CC)CC)cc2)C1 (relative stereo) | 21.5 | 25.2 | > 10 | > 10 |
| CCOC(=O)[C@@H]1CCCN(S(=O)(=O)c2ccc(C(=O)N(CC)CC)cc2)C1 | 0.8 | 0.64 | > 10 | 0.1 |
| CCN(CC)S(=O)(=O)c1ccc(S(=O)(=O)N2CCC[C@@H](C(=O)N3CCN(c4nc(C(F)(F)F)no4)CC3)C2)cc1 | 0.6 |  | > 10 | 0.06 |
| CCN(CC)S(=O)(=O)c1ccc(S(=O)(=O)N2CCC[C@@H](C(=O)N[C@H]3CCN(C(=O)OC(C)(C)C)C3)C2)cc1 | 0.1 | 0.3 | > 10 | 0.17 |
| CC(C)c1noc(N2CCN(C(=O)[C@@H]3CCCN(S(=O)(=O)c4ccc(S(=O)(=O)NC5CC5)cc4)C3)CC2)n1 | 1 | 6.7 | > 10 | 0.3 |
| CCOC(=O)[C@@H]1C[C@H](O)CN(S(=O)(=O)c2ccc(S(=O)(=O)N(CC)CC)cc2)C1 (relative stereo) | 1.3 | 3.3 | > 10 | 0.3 |
| CC(C)c1noc(N2CCN(C(=O)[C@@H]3CCCN(S(=O)(=O)c4ccc(S(=O)(=O)NC5CCC5)cc4)C3)CC2)n1 | 0.6 | 3.3 | > 10 | 0.2 |
| CCOC(=O)[C@@H]1CCCN(S(=O)(=O)c2ccc(S(=O)(=O)N(CC)CC)cc2C)C1 | 5.1 | 5.6 | > 10 | 1.2 |
| CCOC(=O)C1CN(S(=O)(=O)c2ccc(S(=O)(=O)N(CC)CC)cc2)C1 | 13.9 | 12.7 | > 10 | 0.8 |

| SMILES | IC50 [1] [µM] | IC50 [2] [µM] | IC50 [3] [µM] | IC50 [4] [µM] |
| --- | --- | --- | --- | --- |
| CCN(CC)S(=O)(=O)c1ccc(S(=O)(=O)N2CCC[C@@H](C(=O)NC3CN(C(=O)OC(C)(C)C)C3)C2)cc1 | 0.2 | 1.8 | > 10 | 0.1 |
| CCOC(=O)[C@@H]1CCCN(S(=N)(=O)c2ccc(S(=O)(=O)N(CC)CC)cc2)C1 (stereo not given in full) | 12.1 | 13.3 | > 10 | 4.7 |
| CCN(CC)S(=O)(=O)c1ccc(S(=O)(=O)N2CCC[C@@H](C(=O)N[C@@H]3CCN(C(=O)OC(C)(C)C)C3)C2)cc1 | 0.2 | 0.4 | > 10 | 0.5 |
| CCOC(=O)[C@@H]1CCCN(S(=O)(=O)c2cccc(S(=O)(=O)N(CC)CC)c2)C1 | > 30 | > 30 | > 10 | > 10 |
| CCOC(=O)C1CCN(S(=O)(=O)c2ccc(S(=O)(=O)N(CC)CC)cc2)CC1 | 27.2 | 23.1 |  |  |
| CCOC(=O)[C@@H]1CCCN(S(=O)(=O)c2ccc(S(=O)(=O)N(C)C)cc2)C1 | 0.9 | 1 | > 10 | 0.3 |
| CCN(CC)S(=O)(=O)c1ccc(S(=O)(=O)N2CCC[C@@H](C(=O)N3CC4(CN(C(=O)OC(C)(C)C)C4)C3)C2)cc1 | 0.4 | 1.1 | > 10 | 0.3 |
| CCN(CC)S(=O)(=O)c1ccc(S(=O)(=O)N2CCC[C@@H](C(=O)NC3CN(C(=O)NC(C)(C)C)C3)C2)cc1 | 3.4 | 10.1 | > 10 | 1.4 |
| CCN(CC)S(=O)(=O)c1ccc(S(=O)(=O)N2CCC[C@@H](C(=O)N3CCC(c4nc(C(C)C)no4)CC3)C2)cc1 | 0.04 | 0.3 | > 10 | 0.03 |
| CCN(CC)S(=O)(=O)c1ccc(S(=O)(=O)N2CCC[C@@H](C(=O)NC3CC3)C2)cc1 | 4.6 |  | > 10 | 1.1 |
| CCOC(=O)[C@@H]1C[C@@H](O)CN(S(=O)(=O)c2ccc(S(=O)(=O)N(CC)CC)cc2)C1 (relative stereo) | 7.9 | 10.8 | > 10 | 2.1 |
| CCOC(=O)[C@@H]1CCCN(S(=O)(=O)c2ccc(S(=O)(=O)N(CC)CC)cn2)C1 | 1.3 | 1.4 | > 10 | 0.3 |
| CCOC(=O)N1CCC[C@@H](S(=O)(=O)c2ccc(S(=O)(=O)N(CC)CC)cc2)C1 | > 30 | > 30 | > 10 | > 10 |
| CCOC(=O)[C@@H]1CCCN(S(=O)(=O)c2ccc3cc(S(=O)(=O)N(CC)CC)ccc3c2)C1 | 7.4 | 13.4 | > 10 | > 3 |
| CCN(CC)S(=O)(=O)c1ccc(S(=O)(=O)N2CCC[C@@H](C(=O)N3CCN(c4nnc(C(C)C)o4)CC3)C2)cc1 | 1.8 |  | > 10 | 1 |
| CCN(CC)S(=O)(=O)c1ccc(S(=O)(=O)N2CCC[C@@H](C(=O)NC3CN(S(C)(=O)=O)C3)C2)cc1 | 2.5 | 7.4 |  |  |
| CCN(CC)S(=O)(=O)c1ccc(S(=O)(=O)N2CCC[C@@H](C(=O)N3CCN(c4nc(C)no4)CC3)C2)cc1 | 0.25 |  | > 10 | 0.2 |
| CCOC(=O)[C@@H]1CCCN(S(=O)(=O)c2ccc(S(=O)(=O)N(C)Cc3ccccc3)cc2)C1 | > 30 | > 30 |  |  |
| CCN(CC)S(=O)(=O)c1ccc(S(=O)(=O)N2CCC[C@@H](C(=O)NC3CCN(C(=O)OC(C)(C)C)CC3)C2)cc1 | 0.1 | 0.3 |  |  |
